Article PMC8403366, “Functional significance of gain-of-function H19 lncRNA in skeletal muscle differentiation and anti-obesity effects” (Genome Medicine, 2021)

Assays:
Assay type in all cases: in vivo, mouse
[1] = system: C57BL/6 J mice; assay: Forelimb grip strength test; details: vs AGR-Scr
Method: A grip strength meter (Columbus Instruments) was used to measure the forelimb grip strength as previously reported. The grid was attached to a force transducer to measure the maximum force applied by the mouse on the grid during the pull. The body weight of the mice was recorded prior to the test and the units of force were calculated in grams-of-force.

[2] = system: C57BL/6 J mice; assay: Glucose and insulin tolerance tests; details: n = 5
Method: Insulin (ITT) and glucose (GTT) tolerance tests were performed on 6-h fasted male and female mice fed with chow or HFD. Glucose values were measured using AimStrip® Plus Blood Glucose Meter (VWR) by tail snip. Glucose (1 g per kg body weight) or human insulin (0.75 U per kg body weight) was injected intraperitoneally (i.p.) after baseline glucose levels were measured in each mouse, and blood glucose levels were measured 15, 30, 45, 60, and 90 min after injection.

[3] = system: WT C57BL/6 J mice; assay: Muscle and fat weights and body composition of treated WT mice; details: 1 mg/kg i.p. every 3 days, 12 weeks
Method: (§1) To determine the effects of H19-Rgof with a skeletal muscle enrichment peptide agrin (AGR-H19-Rgof) on WT C57BL/6 J or Lep^Ob/Ob mice, AGR-tagged oligonucleotides were used. The synthesis and sequence information of AGR-tagged RNA oligonucleotides are described in “Synthesis of H19-Rgof mimics, AGR-H19-Rgof mimics, and Pharmacokinetics (PK) studies.” AGR-Scr (conjugated to scramble oligonucleotides), H19-Rgof, or AGR-H19-Rgof mimics were injected at a dose of 1 mg/kg intraperitoneally into 3-week-old male and female mice. For AGR-H19-Rgof treatment in HFD (Cat # D12492, Research Diets, Inc.)-fed mice, male C57BL/6 J mice were fed with a HFD starting at 6 weeks of age. The AGR-H19-Rgof and AGR-Scr mimics were injected at a dose of 0.5 or 1 mg/kg intraperitoneally every other day starting 2 weeks after the initiation of HFD feeding. Body weight was measured weekly. The general health condition, grooming, and behavior of all animals were monitored daily, and injection sites were checked for signs of redness or edema.
(§2) Unless otherwise indicated, mice were fasted for 4–6 h, anesthetized with isoflurane, and sacrificed by heart puncture. Tissues were dissected, weighed, and either dipped in liquid nitrogen or fixed for immunohistochemistry analysis. Individual muscle was dissected on one side of the body and weighed. Adipose tissues including white adipose tissue (WAT), visceral adipose tissue (VAT), and brown adipose tissue (BAT) were collected and weighed.
(§3) Whole-body composition parameters were measured in male and female mice fed with either chow or HFD by Faxitron Specimen Radiography System (Faxitron X-Ray Corp.) to precisely measure total body fat and lean mass. Mice were housed in the Oxymax/CLAMS metabolic cage system (Columbus Instruments) for 4 days with ad libitum access to food and water. Volume of oxygen uptake (VO2) and exhaled carbon dioxide (VCO2), respiratory exchange ratio (RER), and activity were measured using the Oxymax system. RER is determined by dividing VCO2 produced by VO2 consumed.

[4] = system: C57BL/6 J mice; assay: Oxymax/CLAMS metabolic cage study; details: n = 4
Method: as §3

[5] = system: C57BL/6 J mice on a HFD; assay: HFD-induced obesity model: body, muscle and fat weights, body composition; details: HFD-fed male mice; for body weight: n = 10
Method: as §1, §2, §3

[6] = system: C57BL/6 J mice; assay: Tissue distribution / pharmacokinetics of biotinylated mimics; details: 10 mg/kg i.p.; streptavidin immunohistochemistry, 24 hours post administration; n = 5
Method: The H19-Rgof mimics and AGR-H19-Rgof mimics were synthesized by Bio-synthesis Inc. The linker that connected the peptide and RNA oligonucleotides was succinimidyl 4-(N-maleimidomethyl) cyclohexane-1-carboxylate (SMCC). RNA mimics sequences are listed in the Additional file 1: Table S1. To characterize the pharmacokinetics of H19-Rgof and AGR-H19-Rgof mimics, the biotinylated H19-Rgof and AGR-H19-Rgof mimics (10 mg/kg) were intraperitoneally injected into C57BL/6 J mice. The liver, kidneys, lungs, heart, and skeletal muscles of the animals were collected 3, 12, 24, 48, or 72 h post-injection (n = 5 animal per time point). Tissues were subjected to immunohistochemistry using streptavidin alkaline phosphatase conjugates and small RNA isolation in accordance with the manufacturer’s instructions using miRCURY™ RNA Isolation Kits (Qiagen). Immunostained tissue slides were obtained with a Vectra Polaris Multispectral Imaging scanner (PerkinElmer). The quantification of immunohistochemistry staining density was performed by Image-pro plus 6.0 (Media Cybernetics) and calculated based on the average staining intensity and the percentage of positively stained cells. Pharmacokinetic parameters were determined by nonlinear regression analysis.

[7] = system: C57BL/6 J mice; assay: Echocardiography and diaphragm/aorta histology; details: vs AGR-Scr
Method: The heart function of the mice was assessed using functional rodent echocardiography. After their body hair from the neckline to mid chest level was removed with hair removal cream, the mice were anesthetized with 2% isoflurane in the induction chamber and placed in a supine position atop a heating pad to maintain body temperature. The concentration of isoflurane was adjusted to keep a target heart rate of 450 ± 50 beats per minute (bpm). A rectal probe was gently inserted to continuously monitor and adjust body temperature (37.0 °C ± 0.5 °C) via the heating pad. Electrode gel was applied to all four paws, which were then taped to the ECG electrodes. The mice were subjected to transthoracic echo using Vevo 2100 (MS-550D, 22–55 MHz, VisualSonics Inc.).
Tissues were fixed in 10% Neutral Buffered Formalin embedded in paraffin, sectioned at 5 μm, and stained with hematoxylin/eosin (H&E). Detection of H19 expression using a RNAScope probe (designed by Advanced Cell Diagnostics) was performed on mouse tissues with a RNAScope 2.0 High Definition Assay kit according to the manufacturer's instructions (Advanced Cell Diagnostics). The images were visualized with a Zeiss Axioskop2 plus Microscope, and the slides were scanned on the Automated Cellular Image System III for quantification by digital image analysis.

Question: What does the source list for “N-terminal-ELTNEIPAELTNEIPA-Linker-5'-[2’-F-C][2’-F-U][2’-F-C][2’-F-U][2’-F-U][2’-F-U][2’-F-A][2’-F-U][2’-F-U][2’-F-U][2’-F-C][2’-F-U][2’-F-G][2’-F-A][2’-F-G][2’-F-C][2’-F-U][2’-F-U][2’-F-U][2’-F-C][2’-F-C][2’-F-U][2’-F-A][2’-F-U][2’-F-C][2’-F-U][2’-F-U][2’-F-U][2’-F-C][2’-F-C]-3' [AGR-H19-Rgof]”?
Answer: force output, forelimb grip strength test ([1]; HFD-fed mice, n = 5): increased force output; forelimb grip strength, average force ([1]; WT male and female mice, n = 8): increased average force; glucose metabolism (GTT) ([2]; HFD-fed male mice): improved; insulin resistance (ITT, serum insulin, HOMA-IR) ([2]; HFD-fed male mice): alleviated; blood glucose levels in response to a glucose challenge (GTT) ([2]; WT male mice on chow, glucose 1 g per kg i.p.): reduced; blood glucose levels in response to an insulin challenge (ITT) ([2]; WT male mice on chow, insulin 0.75 U per kg i.p.): reduced; body weight (body composition analysis) ([3]; vs AGR-Scr): increased body weight; fat percentage (body composition analysis) ([3]; vs AGR-Scr): reduced; fat weight (body composition analysis) ([3]; vs AGR-Scr): reduced; lean weight (body composition analysis) ([3]; vs AGR-Scr): increased; fat weight (BAT, WAT, VAT) ([3]; vs AGR-Scr or H19-Rgof): reduced fat weight; muscle weight ([3]; vs AGR-Scr or H19-Rgof): increased muscle weight; overall food intake ([4]; HFD-fed male mice, vs AGR-Scr): similar; energy expenditure ([4]; HFD-fed mice, CLAMS): elevated; total activity ([4]; HFD-fed mice, CLAMS, vs AGR-Scr): similar; activity per day/night ([4]; WT male mice on chow, CLAMS, vs control): not significantly altered; total food intake ([4]; WT male mice on chow, vs control): not significantly altered; respiratory exchange ratio (RER) ([4]; WT mice on chow, CLAMS, vs AGR-Scr): elevated; body weight ([5]; 0.5 mg/kg i.p. every other day): significantly reduced; body weight ([5]; 1 mg/kg i.p. every other day): significantly reduced; fat percentage (body composition) ([5]; vs AGR-Scr, n = 5): reduced; fat weight (body composition) ([5]; vs AGR-Scr, n = 5): reduced; lean weight (body composition) ([5]; vs AGR-Scr, n = 5): increased; fat mass ([5]; vs AGR-Scr, n = 10, 9): reduced; skeletal muscle mass ([5]; vs AGR-Scr, n = 10, 9): increased; accumulation in liver, kidneys and lungs [6]: minimal accumulation; biotin-labeled mimic detected in skeletal muscle [6]: substantial proportion; skeletal muscle distribution compared to unlabeled H19-Rgof [6]: significantly enhanced; LV end diastolic diameter, LV stroke volume, LV ejection fraction, LV fractional shortening, interventricular septal end diastole ([7]; echocardiography, n = 10): minimally affected; aorta tunica media and tunica adventitia thickness ([7]; histology, n = 6): unaltered; diaphragm thickness ([7]; histology, n = 6): increased thickness
